Results: PMC4082485, “The Rodin-Ohno hypothesis that two enzyme superfamilies descended from one ancestral gene: an unlikely scenario for the origins of translation that will not be dismissed” (Biology Direct, 2014)
pKd: −log10 of the molar value.

Experiments:
[1] = molecular target: T1, HisRS Urzyme (HisRS 2) (Escherichia coli, UniProt P60906); experiment: Michaelis-Menten steady-state kinetics of amino acid activation; format: biochemical; conditions: ATP co-substrate; only kcat/KM free energies plotted
T1 construct: gene hisS; HisRS invariant core (Motifs 1 and 2, 122-residue base fragment); MBP fusion, TEV cleavage
T1 sequence (P60906 25-146): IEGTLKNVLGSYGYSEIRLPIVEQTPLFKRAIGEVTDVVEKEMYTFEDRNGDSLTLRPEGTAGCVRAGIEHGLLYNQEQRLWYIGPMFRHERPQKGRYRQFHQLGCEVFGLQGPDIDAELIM

[2] = molecular target: T2, HisRS 46-residue peptide (46-mer, Class II ATP binding site) (Escherichia coli, UniProt P60906); experiment: fluorescence titration of ATP with peptide (Mildvan assay); conditions: pH 4.5; range printed jointly for the TrpRS and HisRS 46-mers, not assigned to either
T2 construct: gene hisS
T2 sequence (P60906 101-146): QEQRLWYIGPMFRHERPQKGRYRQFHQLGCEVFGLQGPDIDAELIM

[3] = molecular target: T3, TrpRS 46-residue peptide (46-mer, Class I ATP binding site) (Geobacillus stearothermophilus, UniProt P00953); experiment: as above
T3 construct: gene trpS
T3 sequence (P00953 1-46 limits assumed): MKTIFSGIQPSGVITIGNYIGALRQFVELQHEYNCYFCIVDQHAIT

pKd [2] | pKd [3] | Compound | Michaelis-Menten steady-state kinetics of amino acid activation [1]
– | – | N[C@@H](Cc1cnc[nH]1)C(=O)O [histidine] | they both preferentially activate amino acids similar to the original substrate (i.e., Leu and His)
4.19 to 5.00 | 4.19 to 5.00 | Nc1ncnc2c1ncn2[C@@H]1O[C@H](COP(=O)(O)OP(=O)(O)OP(=O)(O)O)[C@@H](O)[C@H]1O [ATP] | –
